Data as given in article PMC10987480, “Biological and mutational analyses of CXCR4–antagonist interactions and design of new antagonistic analogs” (Bioscience Reports, 2023).
Positions of bridges follow the written chain, without caps; N, C: chain ends. Non-standard residues stand in square brackets, D forms with d. Chains are numbered I, II in the order given. No end group written: not given here.

Key:
[1] = molecular target: T1, CXCR4 D193A (Homo sapiens, UniProt P61073, D193A); assay: Competitive binding to CXCR4 mutant D193A (12G5, CHO cells); details: TM4, class of reduction vs wild-type CXCR4, 12G5 competition, averages of at least three independent experiments
T1 construct: expressed in transfected cells
T1 sequence (P61073 whole entry D193A): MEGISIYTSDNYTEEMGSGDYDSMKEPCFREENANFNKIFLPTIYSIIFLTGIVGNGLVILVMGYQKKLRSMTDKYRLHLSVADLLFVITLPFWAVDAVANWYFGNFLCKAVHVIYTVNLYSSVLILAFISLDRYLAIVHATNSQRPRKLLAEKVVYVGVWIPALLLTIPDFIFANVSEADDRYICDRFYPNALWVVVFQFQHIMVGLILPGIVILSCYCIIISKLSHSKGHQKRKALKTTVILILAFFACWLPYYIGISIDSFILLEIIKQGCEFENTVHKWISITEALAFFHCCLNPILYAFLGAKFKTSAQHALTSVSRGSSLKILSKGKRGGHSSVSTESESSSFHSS
Procedure: (§1) Plasmid pcDNA3-CXCR4 and mutated pcDNA3-CXCR4 were extracted and transfected into CHO cells using Lipofectamine 2000 according to the manufacturer’s guidelines. The selective medium containing G418 at a concentration of 1.2 mg/ml was applied to isolate stably transfected cells. CHO cells expressing wild-type CXCR4 and mutant CXCR4 were obtained using fluorescence-activated cell sorting (FACS).
(§2) All of the CXCR4 mutants were prepared using PCR technology. Briefly, pairs of asymmetrical primers containing the desired amino acid mutations (Supplementary Tables S1 and S2), each complementary to opposite strands of the pcDNA3–CXCR4, were designed for amplification by Q5® High-Fidelity DNA polymerase and the generation of mutated constructs. The methylated pcDNA3–CXCR4 templates were digested by DpnI. The mutated pcDNA3–CXCR4 was transformed into competent E. coli TOP10 for long-term storage and amplification.
(§3) The procedure for the CXCR4 competitive binding experiments was published previously. Briefly, CXCR4 antibody 12G5 (250 ng/ml) was incubated with 5 × 10^5 cells and varying concentrations of unlabeled compounds in a final volume of 100 μl of assay buffer (PBS with 0.5% BSA and 0.05% NaN3) in 96-well plates for 40 min on ice, after being washed with assay buffer once. The cells were incubated with FITC-conjugated second antibody IgG for 30 min on ice, then washed with assay buffer three times. The fluorescence intensity was measured for excitation at 485 nm and emission at 535 nm using multimode plate reader (PerkinElmer). The IC50 values were calculated using graphpad Prism 7. Experiments were performed at least three times.

[2] = molecular target: T2, CXCR4 I284A (Homo sapiens, UniProt P61073, I284A); assay: Competitive binding to CXCR4 mutant I284A (12G5, CHO cells); details: TM7, class of reduction vs wild-type CXCR4, 12G5 competition, averages of at least three independent experiments
T2 construct: expressed in transfected cells
T2 sequence (P61073 whole entry I284A): as the sequence (P61073 whole entry D193A) above, with A193D, I284A counted along it
Procedure: as §1, §2, §3

[3] = molecular target: T3, CXCR4 V112A (Homo sapiens, UniProt P61073, V112A); assay: Competitive binding to CXCR4 mutant V112A (12G5, CHO cells); details: TM3, class of reduction vs wild-type CXCR4, 12G5 competition, averages of at least three independent experiments
T3 construct: expressed in transfected cells
T3 sequence (P61073 whole entry V112A): as the sequence (P61073 whole entry D193A) above, with V112A, A193D counted along it
Procedure: as §1, §2, §3

[4] = molecular target: T4, CXCR4 D262E (Homo sapiens, UniProt P61073, D262E); assay: Competitive binding to CXCR4 mutant D262E (12G5, CHO cells); details: TM6, class of reduction vs wild-type CXCR4, 12G5 competition, averages of at least three independent experiments
T4 construct: expressed in transfected cells
T4 sequence (P61073 whole entry D262E): as the sequence (P61073 whole entry D193A) above, with A193D, D262E counted along it
Procedure: as §1, §2, §3

[5] = molecular target: T5, CXCR4 H203A (Homo sapiens, UniProt P61073, H203A); assay: Competitive binding to CXCR4 mutant H203A (12G5, CHO cells); details: TM5, class of reduction vs wild-type CXCR4, 12G5 competition, averages of at least three independent experiments
T5 construct: expressed in transfected cells
T5 sequence (P61073 whole entry H203A): as the sequence (P61073 whole entry D193A) above, with A193D, H203A counted along it
Procedure: as §1, §2, §3

[6] = molecular target: T6, CXCR4 (Homo sapiens, UniProt P61073); assay: SDF-1α-induced calcium mobilization assay in SupT1 cells (Fluo-4); type: cell-based; design: host or cells: SupT1 cells; details: 50 nM SDF-1α
T6 sequence (P61073 whole entry): as the sequence (P61073 whole entry D193A) above, with A193D counted along it
Procedure: (§4) Figure 2 The inhibitory effect of the antagonists on SDF-1α-induced cell chemotaxis and calcium mobilization in SupT1 cells The antagonists and concentrations used were labeled in each lane. (A) The inhibition of cell migration by the noted antagonists. SupT1 cells pre-treated with or without CXCR4 antagonists were seeded in the upper well and cell migrated by 2 nM SDF-1α. Migrated cells without SDF-1α were used as a negative (0%) and migrated cell induced by SDF-1α as a positive control (100%). […] SupT1 cells were treated with or without CXCR4 antagonists and activated by 50 nM SDF-1α. To directly compare the inhibitory effect of the antagonists on calcium mobilization, the vehicle background and baseline were removed using GraphPad and Origin. The data were averages of at least three independent experiments.
SupT1 cells were collected and washed using HHBS buffer (Hanks’ Balanced Salt solution supplemented with 20 mM HEPES) and incubated with 1 mM probenecid (Energy Chemical, China) and 4 μM Fluo-4 (AAT bioquest, U.S.A.) for 37°C for 30 min with vortex every 5 min. After being washed with HHBS, cells were suspended in PBS at 2 × 10^6/ml and seeded 200 μl cells and various concentrations of compounds per well in 96-well plate. Following 50 nM SDF-1α was added to each well, the fluorescence intensity was measured (Ex/Em = 496/516 nm) using EnSpire® multimode plate reader (PerkinElmer, U.S.A.).

[7] = molecular target: T7, CXCR4 W195A (Homo sapiens, UniProt P61073, W195A); assay: Competitive binding to CXCR4 mutant W195A (12G5, CHO cells); details: TM4, class of reduction vs wild-type CXCR4, 12G5 competition, averages of at least three independent experiments
T7 construct: expressed in transfected cells
T7 sequence (P61073 whole entry W195A): as the sequence (P61073 whole entry D193A) above, with A193D, W195A counted along it
Procedure: as §1, §2, §3

[8] = molecular target: T8, CXCR4 D97A (Homo sapiens, UniProt P61073, D97A); assay: Competitive binding to CXCR4 mutant D97A (12G5, CHO cells); details: TM2, class of reduction vs wild-type CXCR4, 12G5 competition, averages of at least three independent experiments
T8 construct: expressed in transfected cells
T8 sequence (P61073 whole entry D97A): as the sequence (P61073 whole entry D193A) above, with D97A, A193D counted along it
Procedure: as §1, §2, §3

[9] = molecular target: T9, CXCR4 Y256A (Homo sapiens, UniProt P61073, Y256A); assay: Competitive binding to CXCR4 mutant Y256A (12G5, CHO cells); details: TM6, class of reduction vs wild-type CXCR4, 12G5 competition, averages of at least three independent experiments
T9 construct: expressed in transfected cells
T9 sequence (P61073 whole entry Y256A): as the sequence (P61073 whole entry D193A) above, with A193D, Y256A counted along it
Procedure: as §1, §2, §3

[10] = molecular target: T10, CXCR4 H113A (Homo sapiens, UniProt P61073, H113A); assay: Competitive binding to CXCR4 mutant H113A (12G5, CHO cells); details: TM3, class of reduction vs wild-type CXCR4, 12G5 competition, averages of at least three independent experiments
T10 construct: expressed in transfected cells
T10 sequence (P61073 whole entry H113A): as the sequence (P61073 whole entry D193A) above, with H113A, A193D counted along it
Procedure: as §1, §2, §3

[11] = molecular target: T6, CXCR4; assay: SDF-1α-induced cell migration assay in SupT1 cells (transwell); type: cell-based; design: host or cells: SupT1 cells; details: 2 nM SDF-1α, 30 min pre-incubation, 3 h migration
Procedure: as §4
SupT1 cells (2 × 10^6 cells per well in 75 μl) were collected and washed using assay buffer (RPMI 1640 supplemented with 0.5% BSA) and incubated with various concentrations of tested compounds for 30 min in the upper well of the transwell-96 well plates with 5.0 µm pore polycarbonate membrane insert (Corning, U.S.A.). Then, 200 μl assay buffer containing 2 nM SDF-1α was added to the lower well and cells were allowed to migrate for 3 h. Migrated cells were measured using celltiter-96 reagent.

[12] = molecular target: T11, CXCR4 W161A (Homo sapiens, UniProt P61073, W161A); assay: Competitive binding to CXCR4 mutant W161A (12G5, CHO cells); details: TM4, class of reduction vs wild-type CXCR4, 12G5 competition, averages of at least three independent experiments
T11 construct: expressed in transfected cells
T11 sequence (P61073 whole entry W161A): as the sequence (P61073 whole entry D193A) above, with W161A, A193D counted along it
Procedure: as §1, §2, §3

[13] = molecular target: T12, CXCR4 W252A (Homo sapiens, UniProt P61073, W252A); assay: Competitive binding to CXCR4 mutant W252A (12G5, CHO cells); details: TM6, class of reduction vs wild-type CXCR4, 12G5 competition, averages of at least three independent experiments
T12 construct: expressed in transfected cells
T12 sequence (P61073 whole entry W252A): as the sequence (P61073 whole entry D193A) above, with A193D, W252A counted along it
Procedure: as §1, §2, §3

[14] = molecular target: T13, CXCR4 Y255A (Homo sapiens, UniProt P61073, Y255A); assay: Competitive binding to CXCR4 mutant Y255A (12G5, CHO cells); details: TM6, class of reduction vs wild-type CXCR4, 12G5 competition, averages of at least three independent experiments
T13 construct: expressed in transfected cells
T13 sequence (P61073 whole entry Y255A): as the sequence (P61073 whole entry D193A) above, with A193D, Y255A counted along it
Procedure: as §1, §2, §3

[15] = molecular target: T14, CXCR4 H281A (Homo sapiens, UniProt P61073, H281A); assay: Competitive binding to CXCR4 mutant H281A (12G5, CHO cells); details: TM7, class of reduction vs wild-type CXCR4, 12G5 competition, averages of at least three independent experiments
T14 construct: expressed in transfected cells
T14 sequence (P61073 whole entry H281A): as the sequence (P61073 whole entry D193A) above, with A193D, H281A counted along it
Procedure: as §1, §2, §3

Compound | Competitive receptor binding activity, CXCR4 D193A [1] | Competitive receptor binding activity, CXCR4 I284A [2] | Competitive receptor binding activity, CXCR4 V112A [3] | Competitive receptor binding activity, CXCR4 D262E [4] | Competitive receptor binding activity, CXCR4 H203A [5] | Inhibition of the calcium signal ([6]; at 50 nM) | Competitive receptor binding activity, CXCR4 W195A [7] | Competitive receptor binding activity, CXCR4 D97A [8] | Competitive receptor binding activity, CXCR4 Y256A [9] | Competitive receptor binding activity, CXCR4 H113A [10] | Inhibition of cell migration ([11]; at 50 nM) | Competitive receptor binding activity, CXCR4 W161A [12] | Competitive receptor binding activity, CXCR4 W252A [13] | Competitive receptor binding activity, CXCR4 Y255A [14] | Competitive receptor binding activity, CXCR4 H281A [15] | inhibition at 0.005 µM ([6]; SUP-T1, at 5 nM) | inhibition at 0.2 µM ([11]; SUP-T1, at 200 nM) | inhibition at 1 µM ([6]; SUP-T1, at 1 μM) | inhibition at 2 µM ([11]; SUP-T1, at 2 μM)
LGASWHRPDKCCLGYQKRPLPQVLLSSWYPTSQLCSKPGVIFLTKRGRQVCADKSKDWVKKLMQQLPVTAR [vMIP-II, viral macrophage-inflammatory protein-II, full-length natural chemokine antagonist produced by human herpesvirus-8; recombinant from Peprotech] | ++ (10–29% reduction compared with wild-type CXCR4) | +++ | +++ | ++ (10–29% reduction compared with wild-type CXCR4) | +++ | 64% | ++ (10–29% reduction compared with wild-type CXCR4) | ++ (10–29% reduction compared with wild-type CXCR4) | +++ | +++ | 64% | +++ | +++ | +++ | +++ | – | – | – | –
NCCCCN(Cc1nc2ccccc2[nH]1)[C@H]1CCCc2cccnc21 [AMD11070] | +++ | +++ | +++ | +++ | +++ | – | ++ (10–29% reduction compared with wild-type CXCR4) | + (30–60% reduction compared with wild-type CXCR4) | +++ | + (30–60% reduction compared with wild-type CXCR4) | – | ++ (10–29% reduction compared with wild-type CXCR4) | +++ | +++ | ++ (10–29% reduction compared with wild-type CXCR4) | 71% | 80% | – | –
I: [dL]G[dA][dS][dW][dH][dR][dP][dD][dK][dC][dC][dL]G[dY][dQ][dK][dR][dP][dL][dP] / II: [dL]G[dA][dS][dW][dH][dR][dP][dD][dK][dC][dC][dL]G[dY][dQ][dK][dR][dP][dL][dP] (disulfide I:11-II:11, I:12-II:12) [DV1 dimer] | ++ (10–29% reduction compared with wild-type CXCR4) | +++ | +++ | ++ (10–29% reduction compared with wild-type CXCR4) | ++ (10–29% reduction compared with wild-type CXCR4) | – | +++ | ++ (10–29% reduction compared with wild-type CXCR4) | +++ | + (30–60% reduction compared with wild-type CXCR4) | – | +++ | +++ | +++ | ++ (10–29% reduction compared with wild-type CXCR4) | – | – | 75% | 43%
